From US6765004B1, “Indoloazepines as vasopressin receptor antagonists” (priority 1999, dated 2004)

Tests used:
[1] = system: vasopressin-induced hypertension; assay: Reversal of vasopressin-induced hypertension in rats, intraduodenal single dose; type: in vivo, Male Long Evans rats; details: ID dose 10 mg/kg, anesthetized rats, maximum percent reversal within 60 min
Description: Reversal of Vasopressin-Induced Hypertension in Rats
The anti-hypertensive activity of compounds was screened in an anesthetized model of vasopressin-induced hypertension. Male Long Evans, normotensive rats of between 350 and 450 g in body weight were anesthetized with pentobarbital (35 mg/kg, ip) and maintained throughout the procedure with an ip infusion of 10 mg/kg/hr. Arginine vasopressin was infused at 30 ng/kg/min, iv, to induce a stable hypertensive state (ca. 50 mmHg increase in mean arterial blood pressure). Compounds of interest were administered in an ascending dose fashion and the maximum decrease in mean arterial blood pressure was recorded. An ED50 was determined from the linear portion of the dose-response relationship for each animal.
This model was modified slightly to assess the bioavailability of compounds of interest. Rather than dosing the animals iv in an ascending dose fashion, a single dose per animal was administered directly into the duodenum. The anti-hypertensive effects were then monitored for 60 min and the maximum percent reversal was calculated.

[2] = target: T1, human V-2 receptor (Homo sapiens, UniProt P30518); assay: In vitro recombinant vasopressin receptor binding assay (V-2), displacement of 3H-arginine vasopressin; set-up: dose or concentration left out as unconfirmed; details: cloned human V-2 receptor membranes, HEK-293
T1 construct: expressed in transfected cells; host or cells: HEK-293
T1 sequence (P30518 whole entry): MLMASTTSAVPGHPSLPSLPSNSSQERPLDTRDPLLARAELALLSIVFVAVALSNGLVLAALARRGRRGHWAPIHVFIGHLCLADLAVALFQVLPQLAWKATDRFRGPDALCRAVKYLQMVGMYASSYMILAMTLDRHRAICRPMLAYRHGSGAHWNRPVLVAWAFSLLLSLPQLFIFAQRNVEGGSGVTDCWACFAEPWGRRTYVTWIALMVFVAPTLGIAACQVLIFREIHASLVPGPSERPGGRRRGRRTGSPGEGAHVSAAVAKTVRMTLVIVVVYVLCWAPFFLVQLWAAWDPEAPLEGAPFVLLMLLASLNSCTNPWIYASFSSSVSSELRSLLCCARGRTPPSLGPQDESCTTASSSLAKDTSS
Description: (§1) In Vitro Recombinant Vasopressin Receptor Binding Assay
(§2) Compounds were assessed for their ability to displace ^3H-arginine vasopressin from the human V-1 or V-2 receptor in HEK-293 cells. […] Into wells of 96-well round bottom polypropylene plates were added buffer, test compound, membrane (containing cloned human V-1 or V-2 receptor), and ^3H-vasopressin. The reaction plates were allowed to sit at rt for 1 h. The samples were filtered through Unifilter GF/C plates presoaked in 0.3 polyethyleneimine). The plates were washed 5 times with cold physiological saline containing 0.05% Tween 20. After drying, the bottom of the filter plates were sealed and 0.025 ml of Microscint-20 was added to each filter. The top of the plate was sealed, and the plate was counted.

[3] = target: T2, human V-1 receptor (Homo sapiens, UniProt P37288); assay: In vitro recombinant vasopressin receptor binding assay (V-1), displacement of 3H-arginine vasopressin; set-up: unit of the concentration uncertain; details: at 0.1 (unit uncertain) as printed in cell; cloned human V-1 receptor membranes, HEK-293
T2 construct: expressed in transfected cells; host or cells: HEK-293
T2 sequence (P37288 whole entry): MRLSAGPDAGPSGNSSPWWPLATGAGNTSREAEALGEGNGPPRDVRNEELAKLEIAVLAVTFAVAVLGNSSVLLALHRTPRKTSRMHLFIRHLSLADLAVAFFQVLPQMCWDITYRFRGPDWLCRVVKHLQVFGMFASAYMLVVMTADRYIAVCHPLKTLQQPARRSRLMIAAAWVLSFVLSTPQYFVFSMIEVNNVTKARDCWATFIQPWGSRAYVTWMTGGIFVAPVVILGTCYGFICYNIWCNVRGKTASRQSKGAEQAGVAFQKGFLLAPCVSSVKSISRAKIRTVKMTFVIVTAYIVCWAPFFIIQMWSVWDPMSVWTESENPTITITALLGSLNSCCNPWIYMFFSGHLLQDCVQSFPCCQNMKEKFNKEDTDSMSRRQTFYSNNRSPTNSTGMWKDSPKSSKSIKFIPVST
Description: as §1, §2

Question: For O=C(Nc1ccc(C(=O)N2CCCc3c[nH]c4cccc2c34)cc1)c1ccccc1-c1ccccc1 [Compound 10, 6-[4-[[(2-Biphenyl-)carbonyl]amino]benzoyl]-3,4,5,6-tetrahydro-1H-azepino[4,3,2-cd]indole], which “BP Reduction (%)” value [1] is on record?
Answer: The value was 17%.

Question: Cc1occc1C(=O)Nc1ccc(C(=O)N2CCCc3c[nH]c4cccc2c34)cc1 [Compound 12, 6-[4-[[(2-Methyl-3-furanyl)carbonyl]amino]benzoyl]-3,4,5,6-tetrahydro-1H-azepino[4,3,2-cd]indole] was tested. Which “V2 Bdg (%)” value [2] did it give?
Answer: Its value is 24% (1.0 M).

Question: O=C(Nc1ccc(C(=O)N2CCCC3C(=O)Nc4cccc2c43)cc1)c1ccccc1-c1ccccc1 (centres unmarked) [Compound 15, 6-[4-[[(2-Biphenyl-)carbonyl]amino]benzoyl]-3,4,5,6-tetrahydro-1H-azepino[4,3,2-cd]-2-indolone] was tested. Which “BP Reduction (%)” value [1] did it give?
Answer: The value was 23%.

Question: CN(C)Cc1[nH]c2cccc3c2c1CCCN3C(=O)c1ccc(NC(=O)c2ccccc2-c2ccccc2)cc1 [Compound 17, 6-[4-[[(2-Biphenyl-)carbonyl]amino]benzoyl]-2-(N, N-dimethylaminomethyl)-3,4,5,6-tetrahydro-1 H-azepino[4,3,2-cd]indole] was tested. Which “V1 Bdg (%)” value [3] did it give?
Answer: Its value is 6% (0.1 M).

Question: What does the source list for O=C(Nc1ccc(C(=O)N2CCCc3c(S(=O)(=O)O)[nH]c4cccc2c34)cc1)c1ccccc1-c1ccccc1 [Compound 18, 6-[4-[[(2-Biphenyl-)carbonyl]amino]benzoyl]-3,4,5,6-tetrahydro-1H-azepino[4,3,2-cd]indole-2-sulfonic acid]?
Answer: V1 Bdg (%) [3]: 0% (0.1 M); BP Reduction (%) [1]: 13%

Question: O=C(Nc1ccc(C(=O)N2CCCc3c(S(=O)(=O)O)[nH]c4cccc2c34)c(Cl)c1)c1ccccc1-c1ccccc1 [Compound 19, 6-[4-[[(2-Biphenyl-)carbonyl]amino]2-chlorobenzoyl]-3,4,5,6-tetrahydro-1 H-azepino (4,3,2-cd]indole-2-sulfonic acid] was tested. Which “V1 Bdg (%)” value [3] did it give?
Answer: Its value is 4% (0.1 M).

Question: What about the “BP Reduction (%)” value [1] of the same compound?
Answer: The value was 23%.
